Test results taken from PubChem BioAssay (NCI).
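Dose response: 5 concentrations. Exposure: 48 h. Format: 96-well plates. Endpoint: linear interpolation; highest concentration if not reached. TGI is the concentration that stops growth completely.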

What was measured:
Assay in all cases: NCI tumour cell line growth inhibition, 48 h
[1] = test system: EKVX NSCLC
[2] = test system: BT-549 breast
[3] = test system: NCI-H460 lung
[4] = test system: CCRF-CEM leukemia
[5] = test system: MDA-MB-231 breast
[6] = test system: SNB-19 CNS
[7] = test system: HCT-116 colon
[8] = test system: HL-60(TB) leukemia
[9] = test system: SK-MEL-2 melanoma
[10] = test system: COLO 205 colon

| SMILES | TGI [1] [µM] | TGI [2] [µM] | TGI [3] [µM] | TGI [4] [µM] | TGI [5] [µM] | TGI [6] [µM] | TGI [7] [µM] | TGI [8] [µM] | TGI [9] [µM] | TGI [10] [µM] |
| --- | --- | --- | --- | --- | --- | --- | --- | --- | --- | --- |
| Cc1nc(Nc2ccccc2Cl)sc1C(=O)CC(=O)C(N)=O | > 100 | > 100 | > 100 | > 100 | > 100 | > 100 | > 100 | > 100 | > 100 | > 100 |
| COC1=CC(=O)N(C)C(O)C1(C#N)OC1OC(CO)C(O)C(O)C1O (stereo unspecified) | > 100 | > 100 | > 100 | > 10 | > 100 | > 100 | > 100 | > 100 | > 100 | > 100 |
| COc1ccccc1NC(=O)CC(=O)NN | > 100 | > 100 | > 100 | > 100 | > 100 | > 100 | > 100 | > 100 | > 100 | > 100 |
| C=C1CC(C)(c2cccc(Nc3nc4ccccc4c4occc34)c2)OC1=O (stereo unspecified) | 27.9 | 17.4 | 33.8 | 5.08 | 23.1 | 59.4 | 3.1 | 5.38 |  | 17.6 |
| O=c1[nH]nc(Cc2ccc(Cl)cc2)n1/N=C/c1ccc([N+](=O)[O-])o1 | 13.8 | 6.8 | > 36.2 | > 37 | > 34.7 | 33.3 | 3.2 | > 26.1 | 12.4 | > 20.1 |
| Cc1ccccc1NC(=O)CC(=O)NNC(Sc1ccccc1)c1cc(N=Nc2ccc(Br)cc2)ccc1O (stereo unspecified) | > 10 | > 10 | > 10 | > 10 | 6.05 | > 10 | 1.19 | 0.907 | > 10 | > 10 |
| CC1CCC2(OC1)OC1C(O)C3C4CCC5CC(OC6OC(CO)C(OC7OC(CO)C(O)C(OC8OCC(O)C(O)C8O)C7OC7OC(CO)C(O)C(OC8OC(CO)C(O)C(O)C8O)C7O)C(O)C6O)C(O)CC5(C)C4CCC3(C)C1C2C (stereo unspecified) | 9.8 | 3.19 | 3.35 | 10.5 | 4.3 | 4.34 | 3.36 | 7.21 | 17.8 | 3.6 |
| CCOC(=O)Nc1ccc(S(=O)(=O)Nn2cnnc2)cc1 | > 100 | > 100 | > 100 | > 100 | > 100 | > 100 | > 100 | > 100 | > 100 | > 100 |
| COc1nc(C#CC2CCCCC2)nc(OC)n1 | 32.6 | 14.6 | 26.6 | 11.7 | 13.2 | 43.6 | 10.2 | 26 | 13.1 | 53.5 |
| CC(CNC(N)=O)NC(N)=O (stereo unspecified) | > 100 | > 100 | > 100 | > 100 | > 100 | > 100 | > 100 | > 100 | > 100 | > 100 |
| COc1cc(N(CCC#N)CCC#N)ccc1/C=N\NC(=O)c1ccc(C)cc1 | > 100 | > 100 | > 100 | > 100 | 36.7 | > 100 | > 100 | > 100 | 32.6 | > 100 |
| CC(=O)C(C)(C)CCC(C)(C)C(C)=O | > 100 | > 100 | > 100 | > 100 | > 100 | > 100 | > 100 | > 100 | > 100 | > 100 |
| C[C@H](C1CC2(C)OC2(C)C(=O)O1)[C@H]1CC[C@H]2[C@@H]3[C@@H]4O[C@@H]4[C@@]4(O)CC=CC(=O)[C@]4(C)[C@H]3CC[C@]12C (stereo partly specified) | > 50 | > 50 | > 50 |  | > 50 | > 50 | > 50 | > 50 | > 50 | > 50 |
| NC(=S)NC/C=C/Cl | > 100 | > 100 | > 100 | > 100 | > 100 | > 100 | > 100 | > 100 | > 100 | > 100 |
| OC(NN=C1CCCC1)(C(F)(F)Cl)C(F)(F)Cl | > 10 | > 10 | > 10 | > 10 | > 10 | > 10 | > 10 | > 10 | > 10 | > 10 |
| COc1ccc2cc(C(C)C(=O)N3C(=O)OCC3(C)C)ccc2c1 (stereo unspecified) | > 100 | > 100 | > 100 |  | > 100 | > 100 | > 100 | > 100 |  | > 100 |
| CC(C)CCOC(=O)NC(Nc1ccc(F)cc1)(C(F)(F)F)C(F)(F)F | > 100 | > 100 | > 100 | 99.5 | 76.1 | > 100 | > 100 | > 100 | > 100 | 42.1 |
| Cn1c(=O)sc2cc(C(=S)N3CCCCC3)ccc21 | > 100 | > 100 | > 100 | 43 | > 100 | > 100 | > 100 | 42.7 | > 100 | > 100 |
| Oc1ccc(-c2nc3ccccc3s2)cc1 | > 100 | > 100 | > 100 | > 100 | 63.4 | > 100 | 74.9 | > 100 | 67.3 | > 100 |
| Cc1c2cccc-2ccc2c3ccccc3n(C(=O)c3ccc(Cl)cc3)c12 | > 100 | > 100 | > 100 | > 100 | > 100 | > 100 | > 100 | > 100 | > 100 | > 100 |
| Clc1ccc(C2=CCN3CC=C(c4ccc(Cl)cc4)C23)cc1 | 31.6 | 24 | 22.4 | 52 | 25 | 31.6 | 19.2 | 19.7 | 29.6 | 6.28 |
| COc1cc2nc(-c3cccs3)nc(Nc3cccc(Cl)c3)c2cc1OC | > 100 | > 100 | > 100 | > 100 | > 100 | > 100 | > 100 | > 100 | > 100 | > 100 |

| SMILES | TGI [1] [µM] | TGI [2] [µM] | TGI [3] [µM] | TGI [4] [µM] | TGI [5] [µM] | TGI [6] [µM] | TGI [7] [µM] | TGI [8] [µM] | TGI [9] [µM] | TGI [10] [µM] |
| --- | --- | --- | --- | --- | --- | --- | --- | --- | --- | --- |
| O=C(OCc1ccccc1)N1CCNCCNCCN(C(=O)OCc2ccccc2)CCNCC1 | 65.1 | > 100 | 52.1 | 65.9 | 65.1 | > 100 | 29.1 | 21.7 | 32.9 | 26.8 |
| CCOC(=O)c1cc(Br)c(-c2onc(C)c2Br)[nH]1 | > 100 | > 100 | > 100 | > 100 | 45.5 | 74.8 | > 100 | > 100 | > 100 | > 100 |
| CC(=O)OC[C@H]1On2nnnc2[C@H](OC(C)=O)[C@@H](OC(C)=O)[C@@H]1OC(C)=O | > 100 | > 100 | > 100 | > 100 | > 100 |  | > 100 | > 100 | > 100 | > 100 |
| COC(=O)Cn1cnc2c(Cl)nc(Nc3ccccc3)nc21 | 88 | > 100 | > 100 | 96.7 | > 100 | > 100 | > 100 | > 100 | 48.8 | > 100 |
| CC1(C)CC[C@]2(C(=O)O)CC[C@]3(C)[C@H](C(=O)C=C4[C@@]5(C)C=C(C#N)C(=O)C(C)(C)[C@@H]5CC[C@]43C)[C@@H]2C1 | 9.68 | 4.11 | 22.2 | > 100 | 7.34 | 3.64 | 4.76 | 11.4 | 3.88 | 1.49 |
| CC(C)Oc1cccc(N2C(Nc3ccccc3)=Nc3ccncc3S2(=O)=O)c1 | > 100 | 66.4 | > 100 | 62.4 | > 100 | > 100 | > 100 | 6.01 | > 100 | 28.8 |
| O=C(Nc1nn[nH]n1)c1nc(-c2ccccc2)cc(=O)[nH]1 | > 100 | > 100 | > 100 | > 100 | > 100 | > 100 | > 100 | > 100 | > 100 | > 100 |
| Cc1ccc(S(=O)(=O)NC(=O)C2=C3SCCN3C(=O)N(S(=O)(=O)c3ccc(C)cc3)C2c2ccccc2)cc1 (stereo unspecified) | > 100 | > 100 | > 100 | 60.5 | > 100 | > 100 | > 100 | > 100 | > 100 | 43.6 |
| NC(N)=NC1C(O)C(O)C(O)C(N=C(N)N)C1O (stereo unspecified) | > 100 | > 100 | > 100 | > 100 | > 100 | > 100 | > 100 | > 100 | > 100 | > 100 |
| O=[Se](O)O | 15.7 | 39 | > 49.9 | > 100 | 3.05 | > 22 | 15.6 | > 100 | > 39.4 | > 60.3 |
| CCN(CC)C(=O)CCN1CC1 | > 10 | > 10 | > 10 | > 10 | > 10 | > 10 | > 10 | > 10 | > 10 | > 10 |
| CC(C)=CCC[C@@H](C)C1=C(O)C(Nc2ccccc2I)=C(C)C(=O)C1=O | > 75 | > 75 | > 75 | > 20.9 | > 75 | > 75 | 34.8 | 4.39 | 29.4 | 33.1 |
| CCSC1=CC2(O)N(CCc3ccc(OC)c(OC)c3)C(=O)CC2(C(=O)OC)CC1=O (stereo unspecified) | > 100 | 32.8 |  | > 100 | 35.4 | > 100 | 32.1 | 73.5 | 38.9 | > 100 |
| Cc1cc(S(=O)(=O)/N=C(/NN)Nc2ccc(Cl)cc2)c(S)cc1Cl | 29.3 | 34.6 | 17.1 | 94 | 84.2 | 25.3 | 20 | 63.8 | 76.9 | 33 |
| NCCSCCC(=O)O | > 100 | > 100 | > 37.9 | > 100 | > 100 | > 100 | > 100 | > 100 | > 100 | > 74.3 |
| O=C(O)/C=C\C(=O)Nn1c(Cc2ccc(Cl)cc2)n[nH]c1=O | > 100 | > 100 | > 100 | > 100 | > 100 |  | > 100 | > 100 | > 100 | > 100 |
| O=C(O)c1ccccc1C1c2ccccc2Oc2ccccc21 | > 100 | > 100 | > 100 | > 100 | > 100 | > 100 | > 100 | > 100 | 86.5 |  |
| O=c1c2nc(-c3ccccc3)oc2n(-c2ccccc2)c(=O)n1-c1ccccc1 | > 46.4 | > 46.4 | > 46.4 | > 46.4 | > 46.4 | 36 | > 46.4 | > 100 | > 46.4 | > 46.4 |
| O=C(c1ccc(Cl)cc1)N1CCN=C1c1cc2ccccc2c2ccccc12 | 28 | 33.6 | 24.9 | 81.1 | 29.9 | 30.5 | 28.1 | 49.9 | 31.4 | 29.5 |
| O=C1/C(=C/c2cccc3ccccc23)CCc2ccc([N+](=O)[O-])cc21 | > 100 | 45.5 | > 100 | > 100 | > 100 | 43.7 | 71 | > 100 |  | > 100 |
| Cc1nc(-c2cc3ccccc3oc2=O)cs1 | > 100 | 31 | > 100 | > 100 | 72.6 | > 100 | > 100 | > 100 | > 100 | > 100 |
